The record followed here is patent US8815854B2, “Substituted imidazopyridinyl compounds” (ArQule, Inc., priority 2011, dated 2014).

pIC50: −log10 of the molar value.

Full-length inactive AKT1, sequence (P31749 whole entry): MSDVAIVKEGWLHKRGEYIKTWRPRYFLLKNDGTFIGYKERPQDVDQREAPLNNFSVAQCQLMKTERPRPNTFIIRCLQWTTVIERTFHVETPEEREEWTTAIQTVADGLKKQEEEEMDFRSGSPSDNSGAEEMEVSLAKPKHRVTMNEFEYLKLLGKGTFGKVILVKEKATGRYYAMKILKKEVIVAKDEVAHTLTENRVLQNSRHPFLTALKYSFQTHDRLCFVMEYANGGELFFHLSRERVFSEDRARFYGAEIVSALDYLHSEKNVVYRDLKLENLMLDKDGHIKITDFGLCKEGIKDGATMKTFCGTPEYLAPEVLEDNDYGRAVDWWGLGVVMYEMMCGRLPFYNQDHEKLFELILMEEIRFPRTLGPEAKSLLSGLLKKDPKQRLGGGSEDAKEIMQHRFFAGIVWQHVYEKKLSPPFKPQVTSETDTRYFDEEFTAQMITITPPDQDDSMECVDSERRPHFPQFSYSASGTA

The assay has as its target Full-length inactive AKT1 (Homo sapiens (Human), UniProt P31749). Description: Inactive Akt Alpha Screen Assay (AKT1, crosstide substrate). To be noted: full-length inactive AKT1 activated by PDK1 and MAPKAPK2, lipid vesicles, 50 μM ATP; biotinylated crosstide substrate; read-out: Akt1 biochemical assay IC50 AlphaScreen crosstide. As for the experimental part: AKT1 activity was assayed using the GSK3-derived biotinylated peptide substrate, crosstide (biotin-GRPRTSSFAEG), and AlphaScreen™ (Amplified Luminescent Proximity Homogeneous Assay) technology. AKT1 activation was achieved by the addition of the activating kinases PDK1 and MAPKAPK2, lipid vesicles, and ATP. The extent of peptide phosphorylation was determined using a phospho-AKT substrate antibody and acceptor beads conjugated to Protein A and donor beads conjugated to streptavidin that bind to the biotin on the peptide. Excitation of the donor beads converted ambient oxygen to excited singlet oxygen which, when in close proximity to acceptor beads, reacted with acceptor beads resulting in signal amplification.
Test inhibitors and controls ((S)-1-(5-(3-methyl-1H-indazol-5-yl)pyridin-3-yl)oxy)-3-phenylpropan-2-amine, 1-(1-(4-(7-phenyl-1H-imidazo[4,5-g]quinoxalin-6-yl)benzyl)piperidin-4-yl)-1H-benzo[d]imidazol-2(3H)-one, and 8-(4-(1-aminocyclobutyl)phenyl)-9-phenyl-[1,2,4]triazolo[3,4-f][1,6]naphthyridin-3(2H)-one) were prepared in 10% DMSO at 10-fold the desired final concentration, and added to each well of a reaction plate (Corning 96-well half-area solid white nonbinding surface plate) in a volume of 2.5 μL. […] After a 20 minute pre-incubation at room temperature, the kinase reaction was initiated by the addition of 5 μL of an activation mixture diluted in assay buffer containing biotinylated crosstide, PDK1, MAPKAPK2, DOPS/DOPC, PtdIns(3,4,5)P3, and ATP for final concentrations of 60 nM biotinylated crosstide, 0.1 nM PDK1, 0.7 nM MK2, 5.5 μM DOPS, 5.5 μM DOPC, 0.5 μM PtdIns(3,4,5)P3, and 50 μM ATP. The plates were incubated for 30 minutes at room temperature, and then stopped in the dark by the addition of 10 μL stop/detection mixture prepared in assay buffer containing EDTA, AlphaScreen™ Streptavidin Donor and Protein A Acceptor beads, and phospho-AKT substrate antibody for final concentrations of 10 mM EDTA, 500 ng/well of both AlphaScreen™ Streptavidin Donor beads and Protein A Acceptor beads, and phospho-AKT substrate antibody at a final dilution of 1:350. Assay plates were incubated for 90 minutes at room temperature in the dark, and the plates were read on a Perkin Elmer Envision Multilabel plate reader (excitation wavelength: […], emission wavelength: 570 nm).
Envision Instrument Settings: • Instrument: Perkin Elmer Envision • Plate: 96 well • Program Name: • Excitation: Ex Top • Minor: General Dual—Slot 2 • Excitation Filter: CFP430 Ex. Slot 2 • Emission Filter Emission 579—Em slot 2 • 2nd Emission Filter: None • Measurement Height (mm): 3.8 • Excitation light (%): 1 • Detector gain: 1 • 2nd detector gain: 0 • # Flashes: 10 • # Flashed/AD: 1 • Reference Signal: 383722 • AD gain: 4 • Reference Excitation (%): 100
For orientation: Alpha assays give light when donor and acceptor beads are brought close together.
Turning to `NC1(c2ccc(-n3c(-c4ccc(Cl)cc4)nc4ccc(-c5cccc(N6CCOCC6)c5)nc43)cc2)CCC1` [Cmpd 34, 1-{4-[2-(4-chlorophenyl)-5-(3-morpholin-4-ylphenyl)-3H-imidazo[4,5-b]pyridin-3-yl]phenyl}cyclobutanamine], the pIC50 was 8.23.
The result for `NC1(c2ccc(-n3c(-c4cccc(F)c4)nc4ccc(-c5cccc(N6CCOCC6)c5)nc43)cc2)CCC1` [Cmpd 30, 1-{4-[2-(3-fluorophenyl)-5-(3-morpholin-4-ylphenyl)-3H-imidazo[4,5-b]pyridin-3-yl]phenyl}cyclobutanamine] reads 8.32.
For `NC1(c2ccc(-n3c(-c4cccnc4)nc4ccc(-c5cccc(N6CCOCC6)c5)nc43)cc2)CCC1` [Cmpd 15, 1-{4-[5-(3-morpholin-4-ylphenyl)-2-pyridin-3-yl-3H-imidazo[4,5-b]pyridin-3-yl]phenyl} cyclobutanamine] the value was 8.37.
With `NC1(c2ccc(-n3c(-c4ccncc4)nc4ccc(-c5cccc(N6CCOCC6)c5)nc43)cc2)CCC1` [Cmpd 16, 1-{4-[5-(3-morpholin-4-ylphenyl)-2-pyridin-4-yl-3H-imidazo[4,5-b]pyridin-3-yl]phenyl} cyclobutanamine], the pIC50 was 8.11.
For `NC1(c2ccc(-n3c(-c4ccc(O)cc4)nc4ccc(-c5cccc(N6CCOCC6)c5)nc43)cc2)CCC1` [Cmpd 26, 4-{3-[4-(1-aminocyclobutyl)phenyl]-5-(3-morpholin-4-ylphenyl)-3H-imidazo[4,5-b]pyridin-2-yl}phenol] the value was 8.35; for `NC1(c2ccc(-n3c(-c4ccccc4)nc4ccc(Nc5ccccc5)nc43)cc2)CCC1` [Cmpd 47, 3-[4-(1-aminocyclobutyl)phenyl]-N,2-diphenyl-3H-imidazo[4,5-b]pyridin-5-amine], 8.38; for `NC1(c2ccc(-n3c(-c4ccc(F)cc4)nc4ccc(-c5cccc(N6CCOCC6)c5)nc43)cc2)CCC1` [Cmpd 31, 1-{4-[2-(4-fluorophenyl)-5-(3-morpholin-4-ylphenyl)-3H-imidazo[4,5-b]pyridin-3-yl]phenyl}cyclobutanamine], 7.45.
For `CNC(=O)c1cccc(-c2ccc3nc(-c4ccccc4)n(-c4ccc(C5(N)CCC5)cc4)c3n2)c1` [Cmpd 37] the value was 8.30; for `NC1(c2ccc(-n3c(-c4cc[nH]c4)nc4ccc(-c5cccc(N6CCOCC6)c5)nc43)cc2)CCC1` [Cmpd 19, 1-{4-[5-(3-morpholin-4-ylphenyl)-2-(1H-pyrrol-3-yl)-3H-imidazo[4,5-b]pyridin-3-yl]phenyl} cyclobutanamine], 8.25; for `COC(=O)c1ccccc1-c1nc2ccc(-c3cccc(N4CCOCC4)c3)nc2n1-c1ccc(C2(N)CCC2)cc1` [Cmpd 20, methyl 2-{3-[4-(1-aminocyclobutyl)phenyl]-5-(3-morpholin-4-ylphenyl)-3H-imidazo[4,5-b]pyridin-2-yl} benzoate], 5.28.
On to `NC1(c2ccc(-n3c(-c4cccs4)nc4ccc(-c5cccc(N6CCOCC6)c5)nc43)cc2)CCC1` [Cmpd 12, 1-{4-[5-(3-morpholin-4-ylphenyl)-2-(2-thienyl)-3H-imidazo[4,5-b]pyridin-3-yl]phenyl} cyclobutanamine], for which the pIC50 is 8.14.
For `NC1(c2ccc(-n3c(C4CCCCC4)nc4ccc(-c5cccc(N6CCOCC6)c5)nc43)cc2)CCC1` [Cmpd 24, 1-{4-[2-cyclohexyl-5-(3-morpholin-4-ylphenyl)-3H-imidazo[4,5-b]pyridin-3-yl]phenyl} cyclobutanamine] the value was 5.94; for `NC1(c2ccc(-n3c(-c4ccccc4)nc4ccc(-c5ccccc5)nc43)cc2)CCC1` [Cmpd 5, 1-[4-(2,5-diphenyl-3H-imidazo[4,5-b]pyridin-3-yl)phenyl] cyclobutanamine], 7.90.
The result for `NC1(c2ccc(-n3c(-c4ccsc4)nc4ccc(-c5cccc(N6CCOCC6)c5)nc43)cc2)CCC1` [Cmpd 13, 1-{4-[5-(3-morpholin-4-ylphenyl)-2-(3-thienyl)-3H-imidazo[4,5-b]pyridin-3-yl]phenyl} cyclobutanamine] reads 8.24.
As to `NC1(c2ccc(-n3c(-c4cccnc4F)nc4ccc(-c5ccccc5)nc43)cc2)CCC1` [Cmpd 7, 1-{4-[2-(2-fluoropyridin-3-yl)-5-phenyl-3H-imidazo[4,5-b]pyridin-3-yl]phenyl}cyclobutanamine], the pIC50 is 7.94.
With `NC1(c2ccc(-n3c(C4CC4)nc4ccc(-c5cccc(N6CCOCC6)c5)nc43)cc2)CCC1` [Cmpd 44, 1-{4-[2-cyclopropyl-5-(3-morpholin-4-ylphenyl)-3H-imidazo[4,5-b]pyridin-3-yl]phenyl}cyclobutanamine], the pIC50 is 6.06.
For `NC1(c2ccc(-n3c(-c4ccccc4F)nc4ccc(-c5cccc(N6CCOCC6)c5)nc43)cc2)CCC1` [Cmpd 11, 1-{4-[2-(2-fluorophenyl)-5-(3-morpholin-4-ylphenyl)-3H-imidazo[4,5-b]pyridin-3-yl]phenyl}cyclobutanamine] the value was 8.70; for `NC1(c2ccc(-n3c(-c4cc[nH]n4)nc4ccc(-c5cccc(N6CCOCC6)c5)nc43)cc2)CCC1` [Cmpd 18, 1-{4-[5-(3-morpholin-4-ylphenyl)-2-(1H-pyrazol-3-yl)-3H-imidazo[4,5-b]pyridin-3-yl]phenyl} cyclobutanamine], 8.14.
For the compound `NC(=O)c1cccc(-c2ccc3nc(-c4ccccc4)n(-c4ccc(C5(N)CCC5)cc4)c3n2)c1` [Cmpd 35, 3-{3-[4-(1-aminocyclobutyl)phenyl]-2-phenyl-3H-imidazo[4,5-b]pyridin-5-yl}benzamide], the pIC50 is 8.20.
The result for `NC1(c2ccc(-n3c(-c4cnccn4)nc4ccc(-c5cccc(N6CCOCC6)c5)nc43)cc2)CCC1` [Cmpd 42, 1-{4-[5-(3-morpholin-4-ylphenyl)-2-pyrazin-2-yl-3H-imidazo[4,5-b]pyridin-3-yl]phenyl} cyclobutanamine] reads 8.37.
For `CN(C)C(=O)c1cccc(-c2ccc3nc(-c4ccccc4)n(-c4ccc(C5(N)CCC5)cc4)c3n2)c1` [Cmpd 36, 3-{3-[4-(1-aminocyclobutyl)phenyl]-2-phenyl-3H-imidazo[4,5-b]pyridin-5-yl}-N,N-dimethylbenzamide] the value was 8.24; for `NC1(c2ccc(-n3c(-c4ccccc4)nc4ccc(-c5cccc(N6CCOCC6)c5)nc43)cc2)CCC1` [Cmpd 9, 1-{4-[5-(3-morpholin-4-ylphenyl)-2-phenyl-3H-imidazo[4,5-b]pyridin-3-yl]phenyl}cyclobutanamine], 8.46; for `NC1(c2ccc(-n3c(-c4ccccn4)nc4ccc(-c5cccc(N6CCOCC6)c5)nc43)cc2)CCC1` [Cmpd 14, 1-{4-[5-(3-morpholin-4-ylphenyl)-2-pyridin-2-yl-3H-imidazo[4,5-b]pyridin-3-yl]phenyl} cyclobutanamine], 8.77.
For the compound `NC1(c2ccc(-n3c(-c4nccs4)nc4ccc(-c5cccc(N6CCOCC6)c5)nc43)cc2)CCC1` [Cmpd 17, 1-{4-[5-(3-morpholin-4-ylphenyl)-2-(1,3-thiazol-2-yl)-3H-imidazo[4,5-b]pyridin-3-yl]phenyl} cyclobutanamine], the pIC50 is 8.32.

The pIC50 is the negative decadic logarithm of the IC50, by convention in mol/L.
